# Read-outs that look alike come from different tables or passages of the source.
# Assays:
# P. larvae spores [1] = assay: Inhibition of P. larvae spore germination by indole and phenol, IC50 titration (Example 1); type: cell-based, Paenibacillus larvae subsp. pulvifaciens strain ATCC 49843; details: for IC50: Paenibacillus larvae
# Procedure: The decrease in optical density is proportional to spore germination (Powell, J. Gen. Microbiol., 4:330-338, 1950). Changes in light diffraction during spore germination were monitored at 580 nm (OD580) on a Biomate 5 (ThermoElectron Corporation, Waltham, Mass.) or a Tecan Infinite m200 (Tecan group, Männedorf, Switzerland) spectrophotometer. Experiments were carried out in 96-well plates (200 μL/well). In preparation for germination assays, P. larvae spore suspensions were washed three times with water. Spores were then heat activated at 70° C. for 30 minutes. The heat-activated spores were allowed to reach room temperature and transferred to 0.1 M sodium phosphate buffer (pH 7.0) to an approximate OD580 of 0.70. Spores were monitored for auto-germination for 30 minutes. […] Putative germinants were added individually or in combinations to a final concentration of 3 mM. Experiments were performed in triplicate with at least two different spore preparations. After germinant addition, OD580 of the spore suspension was measured every minute for an hour. Relative OD values were derived by dividing each OD580 reading by the initial OD580. Spore germination rates (v) were calculated from the initial linear decrease in relative OD (Akoachere et al., supra). Germination rates were set to 100% for P. larvae spores that had the fastest germination rate in an assay. Germination rates for other conditions were divided by the maximum germination rate for that assay and are reported as percent germination. […] Spore germination was confirmed in selected samples by microscope observation of Schaeffer-Fulton stained aliquots (Schaeffer and Fulton, supra).
# After 15 minutes of incubation, spores were treated with 3 mM L-tyrosine/3 mM uric acid. The germination rate was set to 100% for P. larvae spores germinated in the absence of inhibitor. Germination rates for other conditions were divided by the uninhibited maximum germination rate obtained with 3 mM L-tyrosine/3 mM uric acid, and are reported as percent germination. Percent germination was plotted against inhibitor concentrations. The resulting sigmoidal curves were fitted using the four parameter logistic function in SigmaPlot v.9 to calculate IC50 values.
# P. larvae spores [2] = assay: Inhibition of P. larvae spore germination, IC50 titration of indole analogs (Example 2); type: cell-based, Paenibacillus larvae subsp. pulvifaciens strain ATCC 49843
# Procedure: After a 15 minute incubation, the spores were treated with 3 mM L-tyrosine-3 mM uric acid. The germination rate was set to 100% for P. larvae spores germinated in the absence of inhibitor. Germination rates for other conditions were divided by the uninhibited maximum germination rate obtained with 3 mM L-tyrosine-3 mM uric acid, and are reported as percent germination. Percent germination was plotted against the inhibitor concentrations.
# [3] = tested on: honey bee larvae contacted with P. larvae spores; assay: Survival of honey bee larvae fed diet with indole analogs and P. larvae spores; type: in vivo; details: 0.5 mM in larval diet (wj) plus P. larvae spores; for survival of honey bee larvae vs P. larvae spores alone: 7-day development, p<0.002
# Procedure: First instar honey bee larvae were obtained from two colonies headed by naturally mated queens (Honey Bee Genetics, Vacaville Calif.). Queens were trapped on empty frames within a cage constructed with queen excluder. Worker bees can fit through the excluder but the queen cannot exit the cage. The frame was placed within the brood chamber to stimulate egg laying by the queen overnight. Eggs were incubated in the hive for 4 days to allow newly hatched larvae to be fed by nurse bees. First instar honey bee larvae were brought into the laboratory and stored in a 35° C. 85% relative humidity chamber before grafting.
# Sterile six well plates with a well volume of 17.0 ml were filled with 2.5 ml of pre-warmed artificial worker jelly. Honey bee larvae were transferred into each well using the thin tongue made of flexible plastic from a Chinese grafting tool. The plastic grafting tool was decontaminated with 70% ethanol throughout usage. Grafting was performed in the sterile environment of a honey bee laboratory, and honey bee larvae were then transferred to a bacterial spore laboratory for control and spore exposure treatments.
# Artificial worker jelly was prepared using a lyophilized royal jelly, D-glucose, D-fructose, yeast extract, and autoclaved double distilled water. Ingredients minus lyophilized royal jelly were dissolved in autoclaved double distilled water. Lyophilized royal jelly was added to this sugar-yeast extract solution and mixed thoroughly with a vortex mixer. Artificial diet was prepared an hour prior to use for larval rearing. To reduce the development of worker-queen hybrids because of nutrition, the composition and amounts of artificial worker jelly were controlled in every larval stage.
# Honey bee larvae were incubated in an air tight plastic container placed inside an incubator. The desired relative humidity (95%) and temperature (35° C.) was verified with an iButton data logger (Maxim Integrated; San Jose, Calif.). The appropriate relative humidity was obtained by placing a solution of 20% glycerol by weight. The plastic containers were was decontaminated throughout usage with detergent, 70% ethanol, and treated with an ultraviolet lamp overnight.
# Feeding of diets was performed daily in different amounts according to Table 2. The amount of diet consumed by larvae was assumed based on published literature. A micropipette was used to place a food drop next to the mouth of the larvae. Drowning was avoided by maintaining the appropriate humidity and water content of diet. Forty first and second instar larvae were placed into one well of a six well plate. Third instar larvae were transferred individually to 48 well plates filled with fresh food.
# Larval survival was determined daily by observing signs of respiration, disease symptoms, and other abnormalities with a stereo microscope. The number of dead larvae was recorded, and surviving larvae were fed fresh food. The start of pupation was indicated by the appearance of uric acid crystals and light yellow excretions in the remaining food.
# The larval survival data was analyzed using the LogRank test in SigmaPlot.
# P. larvae spores [4] = assay: Determination of germinants / agonists of P. larvae spore germination (OD580 decrease); type: cell-based, Paenibacillus larvae subsp. pulvifaciens strain ATCC 49843; details: 3 mM amino acid or analog plus 3 mM uric acid
# Procedure: (§1) The decrease in optical density is proportional to spore germination (Powell, J. Gen. Microbiol., 4:330-338, 1950). Changes in light diffraction during spore germination were monitored at 580 nm (OD580) on a Biomate 5 (ThermoElectron Corporation, Waltham, Mass.) or a Tecan Infinite m200 (Tecan group, Männedorf, Switzerland) spectrophotometer. Experiments were carried out in 96-well plates (200 μL/well). In preparation for germination assays, P. larvae spore suspensions were washed three times with water. Spores were then heat activated at 70° C. for 30 minutes. The heat-activated spores were allowed to reach room temperature and transferred to 0.1 M sodium phosphate buffer (pH 7.0) to an approximate OD580 of 0.70. Spores were monitored for auto-germination for 30 minutes. […] Putative germinants were added individually or in combinations to a final concentration of 3 mM. Experiments were performed in triplicate with at least two different spore preparations. After germinant addition, OD580 of the spore suspension was measured every minute for an hour. Relative OD values were derived by dividing each OD580 reading by the initial OD580. Spore germination rates (v) were calculated from the initial linear decrease in relative OD (Akoachere et al., supra). Germination rates were set to 100% for P. larvae spores that had the fastest germination rate in an assay. Germination rates for other conditions were divided by the maximum germination rate for that assay and are reported as percent germination. Standard deviations were calculated from at least six independent measurements and are typically below 10%. Spore germination was confirmed in selected samples by microscope observation of Schaeffer-Fulton stained aliquots (Schaeffer and Fulton, supra).
# To test for possible agonists of P. larvae spore germination, spores were individually supplemented with 3 mM of a purine analog and 3 mM L-tyrosine. Separately, P. larvae spores were incubated with 3 mM of an amino acid analog and 3 mM uric acid. Spore germination was monitored as described above. […]
# P. larvae spores [5] = assay: Antagonists of P. larvae spore germination, 3 mM (Example 1); type: cell-based, Paenibacillus larvae subsp. pulvifaciens strain ATCC 49843; details: 3 mM analog, 15 minutes, then 3 mM L-tyrosine/3 mM uric acid
# Procedure: as §1
# To test for possible antagonists of P. larvae spore germination, spores were individually supplemented with 3 mM of a purine analog or 3 mM of an amino acid analog. […] If no germination was detected, L-tyrosine and uric acid were added to 3 mM final concentrations, and germination was monitored as described above. […]
# [6] = tested on: P. larvae subsp. larvae spores; type: cell-based, Paenibacillus larvae subsp. larvae
# Description: Chemicals were purchased from Sigma Aldrich Corporation (St. Louis, Mo.). Dehydrated culture media was purchased from BD Difco (Franklin Lakes, N.J.). Paenibacillus larvae subsp. pulvifaciens strain ATCC 49843 was purchased from the […] (ATCC). Environmental American Foulbrood scales (the remains of infected larvae collected from infected hives) were kindly donated by Dr. Jay D. Evans at the USDA Bee Research Facility in Beltsville, Md.
# To test the generality of P. larvae spore response, spores were prepared from P. larvae subsp. pulvifaciens strain ATCC 49843, and also from an environmental AFB sample.
# P. larvae spores [7] = assay: Activation of P. larvae spore germination by L-tyrosine and uric acid (titration); type: cell-based, Paenibacillus larvae subsp. pulvifaciens strain ATCC 49843; details: Paenibacillus larvae
# Procedure: The decrease in optical density is proportional to spore germination (Powell, J. Gen. Microbiol., 4:330-338, 1950). Changes in light diffraction during spore germination were monitored at 580 nm (OD580) on a Biomate 5 (ThermoElectron Corporation, Waltham, Mass.) or a Tecan Infinite m200 (Tecan group, Männedorf, Switzerland) spectrophotometer. Experiments were carried out in 96-well plates (200 μL/well). In preparation for germination assays, P. larvae spore suspensions were washed three times with water. Spores were then heat activated at 70° C. for 30 minutes. The heat-activated spores were allowed to reach room temperature and transferred to 0.1 M sodium phosphate buffer (pH 7.0) to an approximate OD580 of 0.70. Spores were monitored for auto-germination for 30 minutes. […] After germinant addition, OD580 of the spore suspension was measured every minute for an hour. Relative OD values were derived by dividing each OD580 reading by the initial OD580. Spore germination rates (v) were calculated from the initial linear decrease in relative OD (Akoachere et al., supra). […] Standard deviations were calculated from at least six independent measurements and are typically below 10%. […]
# P. larvae spore germination was tested with different combinations of L-tyrosine and uric acid. […] Germination rates were determined as above. […]
# [8] = 15 minutes incubation, then 3 mM L-tyrosine/3 mM uric acid, read-out: IC50 inhibition of P. larvae spore germination
# [9] = Table 1, 15 minutes prior to addition of 3 mM uric acid and 3 mM L-tyrosine, standard deviations in parentheses, N/A = no activity under the conditions tested, read-out: IC50
# [10] = Paenibacillus larvae, Table 2, saturating uric acid/L-tyrosine concentrations, read-out: IC50
# [11] = environmental P. larvae subsp. larvae compared with strain ATCC 49843
smiles,measurement,setting,value
Cn1ccc2ccccc21 [1-N-methylindole],IC50 inhibition of P. larvae spore germination,"P. larvae spores [1]; 15 minutes incubation, then 3 mM L-tyrosine/3 mM uric acid",neither activated nor inhibited
Cc1c[nH]c2ccccc12 [3-methylindole],IC50,P. larvae spores [1]; [8],380 µM
same,IC50,P. larvae spores [1]; [9],380 µM
N#Cc1cccc2[nH]ccc12 [4-cyanoindole],IC50,P. larvae spores [2]; [10],200 ± 20 µM
Brc1ccc2[nH]ccc2c1 [5-bromindole],IC50,"P. larvae spores [2]; Table 2, saturating uric acid/L-tyrosine concentrations, read-out: IC50",60 ± 70 µM
same,ranking of effect on larval survival among analogs,[3],greatest effect
same,survival of honey bee larvae vs P. larvae spores alone,[3],increased survival
Fc1ccc2[nH]ccc2c1 [5-fluoroindole],IC50,P. larvae spores [2]; [10],120 ± 20 µM
Oc1ccc2[nH]ccc2c1 [5-hydroxyindole],IC50,P. larvae spores [2]; [10],550 ± 170 µM
Cc1ccc2[nH]ccc2c1 [5-methylindole],IC50,P. larvae spores [1]; [8],370 µM
same,IC50,P. larvae spores [1]; [9],370 µM
O=[N+]([O-])c1ccc2[nH]ccc2c1 [5-nitroindole],IC50,P. larvae spores [2]; [10],70 ± 10 µM
same,survival of honey bee larvae vs P. larvae spores alone,[3],increased survival
Brc1ccc2cc[nH]c2c1 [6-bromoindole],IC50,P. larvae spores [2]; [10],60 ± 60 µM
same,survival of honey bee larvae vs P. larvae spores alone,[3],increased survival
Clc1ccc2cc[nH]c2c1 [6-chloroindole],IC50,P. larvae spores [2]; [10],20 µM
same,survival of honey bee larvae vs P. larvae spores alone,[3],increased survival
N#Cc1ccc2cc[nH]c2c1 [6-cyanoindole],IC50,P. larvae spores [2]; [10],110 ± 10 µM
Fc1ccc2cc[nH]c2c1 [6-fluoroindole],IC50,P. larvae spores [2]; [10],120 ± 10 µM
Cc1cccc2cc[nH]c12 [7-methylindole],IC50,P. larvae spores [1]; [8],280 µM
same,IC50,P. larvae spores [1]; [9],280 µM
"N[C@H](Cc1ccc(O)cc1)C(=O)O [D-tyrosine, reference compound]",germination response as co-germinant with uric acid,P. larvae spores [4],none of the compounds tested was able to activate
same,inhibition of uric acid/L-tyrosine-induced germination,P. larvae spores [5],did not inhibit
c1ccc2[nH]ccc2c1 [Indole],inhibition of uric acid/L-tyrosine-induced germination,P. larvae spores [5],able to inhibit
same,IC50,P. larvae spores [1],330 µM
same,IC50,P. larvae spores [1]; read-out: IC50 inhibition of P. larvae spore germination,370 µM
same,"inhibition of germination, both P. larvae sub-species",[6]; [11],similarly inhibited
same,IC50,P. larvae spores [2]; Paenibacillus larvae,370 ± 20 µM
same,IC50,"P. larvae spores [2]; Paenibacillus larvae, read-out: IC50 inhibition of P. larvae spore germination (previously shown)",400 µM
N[C@@H](Cc1ccc(O)cc1)C(=O)O [L-tyrosine],germination response as co-germinant with uric acid,P. larvae spores [4],strong germination response
same,EC50,P. larvae spores [7]; read-out: EC50 for L-tyrosine activation of P. larvae spore germination,1200 µM
same,"germination response to L-tyrosine and uric acid, both P. larvae sub-species",[6]; [11],responded identically
Oc1ccccc1 [Phenol],germination response as co-germinant with uric acid,P. larvae spores [4],none of the compounds tested was able to activate
same,inhibition of uric acid/L-tyrosine-induced germination,P. larvae spores [5],able to inhibit
same,"inhibition of germination, both P. larvae sub-species",[6],similarly inhibited
"O=c1[nH]c(=O)c2[nH]c(=O)[nH]c2[nH]1 [uric acid, reference compound]",EC50,"P. larvae spores [7]; titration of uric acid at saturating L-tyrosine concentration (3 mM), read-out: EC50 for uric acid activation of P. larvae spore germination",200 µM
same,"germination response to L-tyrosine and uric acid, both P. larvae sub-species",[6]; [11],responded identically

# Reference: US9668479B2, “Modulating germination of Paenibacillus larvae” (THE BOARD OF REGENTS OF THE NEVADA SYSTEM OF HIGHER …, priority 2013, dated 2017)
